{"source": "paper PMC10951066", "about": "“The self-reactive FVIII T cell repertoire in healthy individuals relies on a short set of epitopes and public clonotypes” (Frontiers in Immunology, 2024)", "test_in_all_cases": "Peptide-MHCII competition binding assay", "key": {"HLA-DRB1*0401": {"target": "HLA-DRB1*0401 (Homo sapiens, UniProt P01903+P01911, A100K/A169T/F76Y/I96L/K127E/L162R/M171V/N62H/P40V/Q125Y/R42H/S133A/S149N/S66Y/V115G/V209L/W38E)", "conditions": "competition ELISA, pH 5.9, peptide 90.000nM – 0.9nM, HLA-DRB1 30 nM, biotinylated peptide 15nM, duplicate wells; ratios below 10 = good binding; reference peptide […]", "experimental": "(§1) Quantitative peptide-MHCII competition binding assays were carried out to determine binding avidities of the 18 20-mer FVIII peptides to 6 HLA-DRB1. Data are presented as ratio between reference peptide IC50/FVIII-peptide IC50 tested. Briefly, non-biotinylated FVIII peptides have been diluted at a concentration of 20 mM in DMSO. 10-µl aliquots of serially diluted (90.000nM – 0.9nM in n-Octyl b-D-Glucopyranoside, 2.5 mg/ml in 1x phosphate buffer, pH 5.9) of non-biotinylated FVIII peptides, were added to duplicate wells of 96-well polypropylene plates. Serially diluted non-FVIII reference peptides known to bind to the specific HLA-DRB1 were added to separate wells as positive controls. Next, the biotinylated peptide at a concentration of 2mM was use to prepare 1000-fold pre-dilution to reach a final concentration of 15nM. The HLA-DRB1 proteins were diluted to 30 nM in n-Octyl β-D-Glucopyranoside, 2.5 mg/ml in 1x phosphate buffer, pH 5.9. […] SA-HRP (diluted 5000x in 1xPBS 0.1% Tween20) was added to each well. The plates were covered and incubated at room temperature for 60 min […] and washed. TMB (100 μl/well) was then added, and the plates were incubated at room temperature for 15-30 min. ELISA stopping solution (0.5M H2SO4) was added and then read on a FLUOstar OPTIMA fluorometer. Sigmoidal binding curves were simulated and IC50 values calculated for the FVIII peptides, based on their competition with the reference peptides for each HLA-DRB1. Data were reported as the ratio between the values of the tested peptide and of the reference peptide. Ratios below 10 correspond to good biding affinity."}, "HLA-DRB1*0701": {"target": "HLA-DRB1*0701 (Homo sapiens, UniProt P01903+P01911, A100R/A102G/A103Q/D57E/D86V/E43K/F76Y/K127E/L162R/M171V/P40G/Q125H/Q99D/R33Q/R42Y/R54Q/S133A/S66F/T210M/V115G/Y107V/Y59L/Y89S)", "conditions": "competition ELISA, pH 5.9, peptide 90.000nM – 0.9nM, HLA-DRB1 30 nM, biotinylated peptide 15nM, duplicate wells; ratios below 10 = good binding; reference peptide PVDLHAFLSQAVFS", "experimental": "as §1"}, "HLA-DRB1*1101": {"target": "HLA-DRB1*1101 (Homo sapiens, UniProt P01903+P01911, A100R/A169T/A87E/I96F/K41T/L162R/M171V/P40S/Q125H/Q178H/Q39Y/Q99D/R42S/S66Y/T262R/V115G/W38E)", "conditions": "competition ELISA, pH 5.9, peptide 90.000nM – 0.9nM, HLA-DRB1 30 nM, biotinylated peptide 15nM, duplicate wells; ratios below 10 = good binding; reference peptide […]", "experimental": "as §1"}, "HLA-DRB1*0101": {"target": "HLA-DRB1*0101 (Homo sapiens, UniProt P01903+P01911, A100R/D57E/F55L/F60I/F76Y/I96L/L162R/M171V/P40L/Q125E/R42F/V115G/Y59C)", "conditions": "competition ELISA, pH 5.9, peptide 90.000nM – 0.9nM, HLA-DRB1 30 nM, biotinylated peptide 15nM, duplicate wells; ratios below 10 = good binding; reference peptide […]", "experimental": "as §1"}, "HLA-DRB1*1501": {"target": "HLA-DRB1*1501 (Homo sapiens, UniProt P01903+P01911)", "conditions": "competition ELISA, pH 5.9, peptide 90.000nM – 0.9nM, HLA-DRB1 30 nM, biotinylated peptide 15nM, duplicate wells; ratios below 10 = good binding; reference peptide ENPVVHFFKNIVTPR", "experimental": "as §1"}}, "data": [{"sequence": "ATRRYYLGAVELSWDYMQSD [P20-39, 20-mer FVIII peptide, A1 domain]", "values": [{"measurement": "Ratio IC50 DRB1*0401", "setting": "HLA-DRB1*0401", "result": 1.7}, {"measurement": "Ratio IC50 DRB1*0701", "setting": "HLA-DRB1*0701", "result": 0.5}, {"measurement": "Ratio IC50 DRB1*1101", "setting": "HLA-DRB1*1101", "result": 0.8}]}, {"sequence": "DHLFNIAKPRPPWMGLLGPT [P75-94, 20-mer FVIII peptide, A1 domain]", "values": [{"measurement": "Ratio IC50 DRB1*0101", "setting": "HLA-DRB1*0101", "result": 747}, {"measurement": "Ratio IC50 DRB1*0401", "setting": "HLA-DRB1*0401", "result": 27}, {"measurement": "Ratio IC50 DRB1*0701", "setting": "HLA-DRB1*0701", "result": 1}, {"measurement": "Ratio IC50 DRB1*1101", "setting": "HLA-DRB1*1101", "result": 1.8}, {"measurement": "Ratio IC50 DRB1*1501", "setting": "HLA-DRB1*1501", "result": 0.0}]}, {"sequence": "HPQSWVHQIALRMEVLGCEA [P2328-2347, 20-mer FVIII peptide, C2 domain]", "values": [{"measurement": "Ratio IC50 DRB1*0101", "setting": "HLA-DRB1*0101", "result": 1.6}, {"measurement": "Ratio IC50 DRB1*0401", "setting": "HLA-DRB1*0401", "result": 1240}, {"measurement": "Ratio IC50 DRB1*0701", "setting": "HLA-DRB1*0701", "result": 1}, {"measurement": "Ratio IC50 DRB1*1101", "setting": "HLA-DRB1*1101", "result": 2}]}, {"sequence": "INGYIMDTLPGLVMAQDQRI [P1940-1959, 20-mer FVIII peptide, A3 domain]", "values": [{"measurement": "Ratio IC50 DRB1*0101", "setting": "HLA-DRB1*0101", "result": 6}, {"measurement": "Ratio IC50 DRB1*0401", "setting": "HLA-DRB1*0401", "result": 0.1}, {"measurement": "Ratio IC50 DRB1*0701", "setting": "HLA-DRB1*0701", "result": 1.1}, {"measurement": "Ratio IC50 DRB1*1101", "setting": "HLA-DRB1*1101", "result": 0.5}]}, {"sequence": "KARLHLQGRSNAWRPQVNNP [P2226-2245, 20-mer FVIII peptide, C2 domain]", "values": [{"measurement": "Ratio IC50 DRB1*0101", "setting": "HLA-DRB1*0101", "result": 0.2}, {"measurement": "Ratio IC50 DRB1*0401", "setting": "HLA-DRB1*0401", "result": 3}, {"measurement": "Ratio IC50 DRB1*0701", "setting": "HLA-DRB1*0701", "result": 0.05}, {"measurement": "Ratio IC50 DRB1*1101", "setting": "HLA-DRB1*1101", "result": 1.9}, {"measurement": "Ratio IC50 DRB1*1501", "setting": "HLA-DRB1*1501", "result": 0.6}]}, {"sequence": "KEPFSWIKVDLLAPMIIHGI [P2084-2103, 20-mer FVIII peptide, C1 domain]", "values": [{"measurement": "Ratio IC50 DRB1*0401", "setting": "HLA-DRB1*0401", "result": 1.9}]}, {"sequence": "KKEEYKMALYNLYPGVFETV [P1986-2005, 20-mer FVIII peptide, A3 domain]", "values": [{"measurement": "Ratio IC50 DRB1*0101", "setting": "HLA-DRB1*0101", "result": 182}, {"measurement": "Ratio IC50 DRB1*0401", "setting": "HLA-DRB1*0401", "result": 622.5}, {"measurement": "Ratio IC50 DRB1*0701", "setting": "HLA-DRB1*0701", "result": 0.2}, {"measurement": "Ratio IC50 DRB1*1501", "setting": "HLA-DRB1*1501", "result": 0.4}]}, {"sequence": "KLARLHYSGSINAWSTKEPF [P2068-2087, 20-mer FVIII peptide, C1 domain]", "values": [{"measurement": "Ratio IC50 DRB1*0101", "setting": "HLA-DRB1*0101", "result": 70.5}, {"measurement": "Ratio IC50 DRB1*0401", "setting": "HLA-DRB1*0401", "result": 0.2}, {"measurement": "Ratio IC50 DRB1*0701", "setting": "HLA-DRB1*0701", "result": 0.35}, {"measurement": "Ratio IC50 DRB1*1101", "setting": "HLA-DRB1*1101", "result": 4.6}, {"measurement": "Ratio IC50 DRB1*1501", "setting": "HLA-DRB1*1501", "result": 20}]}, {"sequence": "LGQFLLFCHISSHQHDGMEA [P322-341, 20-mer FVIII peptide, A1 domain]", "values": [{"measurement": "Ratio IC50 DRB1*0701", "setting": "HLA-DRB1*0701", "result": 0.6}, {"measurement": "Ratio IC50 DRB1*1101", "setting": "HLA-DRB1*1101", "result": 0.05}, {"measurement": "Ratio IC50 DRB1*1501", "setting": "HLA-DRB1*1501", "result": 0.05}]}, {"sequence": "LLTRYLRIHPQSWVHQIALR [P2320-2339, 20-mer FVIII peptide, C2 domain]", "values": [{"measurement": "Ratio IC50 DRB1*0101", "setting": "HLA-DRB1*0101", "result": 1}, {"measurement": "Ratio IC50 DRB1*0401", "setting": "HLA-DRB1*0401", "result": 76}, {"measurement": "Ratio IC50 DRB1*0701", "setting": "HLA-DRB1*0701", "result": 0.05}, {"measurement": "Ratio IC50 DRB1*1101", "setting": "HLA-DRB1*1101", "result": 1}, {"measurement": "Ratio IC50 DRB1*1501", "setting": "HLA-DRB1*1501", "result": 0.0}]}, {"sequence": "LSHVDLVKDLNSGLIGALLV [P178-197, 20-mer FVIII peptide, A1 domain]", "values": [{"measurement": "Ratio IC50 DRB1*0101", "setting": "HLA-DRB1*0101", "result": 1.7}, {"measurement": "Ratio IC50 DRB1*0401", "setting": "HLA-DRB1*0401", "result": 0.05}, {"measurement": "Ratio IC50 DRB1*0701", "setting": "HLA-DRB1*0701", "result": 0.4}, {"measurement": "Ratio IC50 DRB1*1101", "setting": "HLA-DRB1*1101", "result": 0.1}, {"measurement": "Ratio IC50 DRB1*1501", "setting": "HLA-DRB1*1501", "result": 95}]}, {"sequence": "PPIIARYIRLHPTHYSIRST [P2161-2180]", "values": [{"measurement": "Ratio IC50 DRB1*0101", "setting": "HLA-DRB1*0101", "result": 1}, {"measurement": "Ratio IC50 DRB1*0401", "setting": "HLA-DRB1*0401", "result": 5.6}, {"measurement": "Ratio IC50 DRB1*0701", "setting": "HLA-DRB1*0701", "result": 0.05}, {"measurement": "Ratio IC50 DRB1*1101", "setting": "HLA-DRB1*1101", "result": 0.4}, {"measurement": "Ratio IC50 DRB1*1501", "setting": "HLA-DRB1*1501", "result": 0.05}]}, {"sequence": "RHYFIAAVERLWDYGMSSSP [P1715-1734, 20-mer FVIII peptide, A3 domain]", "values": [{"measurement": "Ratio IC50 DRB1*0101", "setting": "HLA-DRB1*0101", "result": 20.4}, {"measurement": "Ratio IC50 DRB1*0401", "setting": "HLA-DRB1*0401", "result": 138}, {"measurement": "Ratio IC50 DRB1*0701", "setting": "HLA-DRB1*0701", "result": 1}, {"measurement": "Ratio IC50 DRB1*1501", "setting": "HLA-DRB1*1501", "result": 77}]}, {"sequence": "SLYISQFIIMYSLDGKKWQT [P2114-2133, 20-mer FVIII peptide, C1 domain]", "values": [{"measurement": "Ratio IC50 DRB1*0101", "setting": "HLA-DRB1*0101", "result": 0.2}, {"measurement": "Ratio IC50 DRB1*0401", "setting": "HLA-DRB1*0401", "result": 0.6}, {"measurement": "Ratio IC50 DRB1*0701", "setting": "HLA-DRB1*0701", "result": 0.1}, {"measurement": "Ratio IC50 DRB1*1101", "setting": "HLA-DRB1*1101", "result": 0.4}, {"measurement": "Ratio IC50 DRB1*1501", "setting": "HLA-DRB1*1501", "result": 4}]}, {"sequence": "VHSIFLEGHTFLVRNHRQAS [P285-304, 20-mer FVIII peptide, A1 domain]", "values": [{"measurement": "Ratio IC50 DRB1*0101", "setting": "HLA-DRB1*0101", "result": 163}, {"measurement": "Ratio IC50 DRB1*0401", "setting": "HLA-DRB1*0401", "result": 57.6}, {"measurement": "Ratio IC50 DRB1*0701", "setting": "HLA-DRB1*0701", "result": 2}, {"measurement": "Ratio IC50 DRB1*1101", "setting": "HLA-DRB1*1101", "result": 0.0}, {"measurement": "Ratio IC50 DRB1*1501", "setting": "HLA-DRB1*1501", "result": 11}]}, {"sequence": "YDTVVITLKNMASHPVSLHA [P100-119, 20-mer FVIII peptide, A1 domain]", "values": [{"measurement": "Ratio IC50 DRB1*0101", "setting": "HLA-DRB1*0101", "result": 226}, {"measurement": "Ratio IC50 DRB1*0401", "setting": "HLA-DRB1*0401", "result": 17}, {"measurement": "Ratio IC50 DRB1*0701", "setting": "HLA-DRB1*0701", "result": 3}, {"measurement": "Ratio IC50 DRB1*1101", "setting": "HLA-DRB1*1101", "result": 2}, {"measurement": "Ratio IC50 DRB1*1501", "setting": "HLA-DRB1*1501", "result": 0.5}]}]}
